Measured values reported in PubChem BioAssay (NCI).
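Here, GI50 denotes the concentration required for 50% inhibition of growth. Definition used: TGI = concentration required for complete inhibition of growth.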

Columns and labels:
Assay in all cases: NCI-60 cell line screen, 384-well format
[1] = test system: ACHN renal
[2] = test system: M14 melanoma
[3] = test system: MDA-MB-468 breast
[4] = test system: KM12 colon
[5] = test system: SR leukemia
[6] = test system: HOP-92 NSCLC
[7] = test system: MALME-3M melanoma
[8] = test system: SF-295 CNS
[9] = test system: NCI-H23 lung
[10] = test system: UACC-257 melanoma
[11] = test system: DU-145 prostate
[12] = test system: HS 578T breast
[13] = test system: SNB-19 CNS
[14] = test system: RPMI-8226 leukemia
[15] = test system: EKVX NSCLC
[16] = test system: SF-268 CNS
[17] = test system: CAKI-1 renal
[18] = test system: A549 NSCLC
[19] = test system: K-562 leukemia
[20] = test system: HCT-116 colon
[21] = test system: HOP-62 NSCLC
[22] = test system: UACC-62 melanoma
[23] = test system: SK-MEL-2 melanoma
[24] = test system: A498 renal
[25] = test system: 786-0 renal
[26] = test system: OVCAR-4 ovarian
[27] = test system: HCT-15 colon
[28] = test system: TK-10 renal
[29] = test system: NCI-H226 lung
[30] = test system: SW-620 colon
[31] = test system: OVCAR-5 ovarian
[32] = test system: SK-MEL-5 melanoma
[33] = test system: SK-MEL-28 melanoma
[34] = test system: SN12C renal
[35] = test system: LOX IMVI melanoma
[36] = test system: UO-31 renal
[37] = test system: NCI-H522 lung
[38] = test system: HT29 colon
[39] = test system: BT-549 breast
[40] = test system: MCF7 breast
[41] = test system: MDA-MB-231 breast
[42] = test system: OVCAR-8 ovarian
[43] = test system: T-47D breast
[44] = test system: SF-539 CNS
[45] = test system: NCI-H460 NSCLC
[46] = test system: NCI/ADR-RES ovarian
[47] = test system: HL-60(TB) leukemia
[48] = test system: SNB-75 CNS
[49] = test system: PC-3 prostate
[50] = test system: U251 glioblastoma
[51] = test system: HCC-2998 colon
[52] = test system: MDA-MB-435 melanoma
[53] = test system: NCI-H322M lung
[54] = test system: SK-OV-3 ovarian
[55] = test system: IGROV1 ovarian
[56] = test system: MOLT-4 leukemia

Cc1cnc(-c2ccc(-c3ccc(NC(=O)Nc4c(F)cc(F)cc4F)cc3F)c3c2C(=O)NC3)[nH]1
GI50 [1]: 957 nM
TGI [1]: 4520 nM
GI50 [2]: 157 nM
TGI [2]: 1230 nM
GI50 [3]: < 10 nM
TGI [3]: 434 nM
GI50 [4]: < 10 nM
TGI [4]: 1140 nM
GI50 [5]: < 10 nM
GI50 [6]: 1460 nM
TGI [6]: 2790 nM
GI50 [7]: 52.2 nM
TGI [7]: 727 nM
GI50 [8]: 1120 nM
TGI [8]: 2420 nM
GI50 [9]: 450 nM
TGI [9]: 1700 nM
GI50 [10]: 856 nM
TGI [10]: 2140 nM
GI50 [11]: 463 nM
TGI [11]: 1880 nM
GI50 [12]: 232 nM
TGI [12]: 653 nM
GI50 [13]: 1250 nM
TGI [13]: 2620 nM
GI50 [14]: 19.1 nM
TGI [14]: 386 nM
GI50 [15]: 816 nM
TGI [15]: 3570 nM
GI50 [16]: 277 nM
TGI [16]: 1500 nM
GI50 [17]: 1080 nM
TGI [17]: 2320 nM
GI50 [18]: 616 nM
TGI [18]: 2150 nM
GI50 [19]: 227 nM
TGI [19]: 1350 nM
GI50 [20]: 153 nM
TGI [20]: 1680 nM
GI50 [21]: 227 nM
TGI [21]: 1270 nM
GI50 [22]: 219 nM
TGI [22]: 1340 nM
GI50 [23]: 395 nM
TGI [23]: 1470 nM
GI50 [24]: 165 nM
TGI [24]: 1160 nM
GI50 [25]: 575 nM
TGI [25]: 1890 nM
GI50 [26]: 196 nM
TGI [26]: 452 nM
GI50 [27]: 748 nM
TGI [27]: 13100 nM
GI50 [28]: 1130 nM
TGI [28]: 2420 nM
GI50 [29]: 1360 nM
TGI [29]: 2740 nM
GI50 [30]: 234 nM
TGI [30]: 1310 nM
GI50 [31]: 1240 nM
TGI [31]: 2870 nM
GI50 [32]: 367 nM
TGI [32]: 1520 nM
GI50 [33]: 633 nM
TGI [33]: 2090 nM
GI50 [34]: 462 nM
TGI [34]: 2000 nM
GI50 [35]: 345 nM
TGI [35]: 1690 nM
GI50 [36]: 161 nM
TGI [36]: 7350 nM
GI50 [37]: 1140 nM
TGI [37]: 2400 nM
GI50 [38]: 1060 nM
TGI [38]: 2270 nM
GI50 [39]: 214 nM
TGI [39]: 981 nM
GI50 [40]: 324 nM
TGI [40]: 1490 nM
GI50 [41]: 1030 nM
TGI [41]: 2350 nM
GI50 [42]: 1090 nM
TGI [42]: 2340 nM
GI50 [43]: 1600 nM
TGI [43]: 3000 nM
GI50 [44]: 305 nM
TGI [44]: 1870 nM
GI50 [45]: < 10 nM
TGI [45]: 201 nM
GI50 [46]: > 100000 nM
TGI [46]: > 100000 nM
GI50 [47]: < 10 nM
TGI [47]: 121 nM
GI50 [48]: 340 nM
TGI [48]: 897 nM
GI50 [49]: 1190 nM
TGI [49]: 2440 nM
GI50 [50]: 623 nM
TGI [50]: 1960 nM
GI50 [51]: 1270 nM
TGI [51]: 2690 nM
GI50 [52]: 397 nM
TGI [52]: 1760 nM
GI50 [53]: 1300 nM
TGI [53]: 3110 nM
GI50 [54]: 341 nM
TGI [54]: 1530 nM
GI50 [55]: 1300 nM
TGI [55]: 6510 nM
GI50 [56]: < 10 nM
